Experimental data published in US20040005623A1, “Method of determining tumor sensitivities to therapeutic drugs” (priority 2002, published 2004).

Experiments:
[1] = target: KIT expressed by HMC1 (Homo sapiens, UniProt P10721, V560G); conditions: has been reported; cited from earlier work
[2] = tested on: HMC1 line; conditions: at 1 μM; cited from earlier work
[3] = target: T1, wild-type KIT (Homo sapiens, UniProt P10721); assay: SCF-induced phosphorylation of wild-type KIT transiently expressed in COS cells (antiphosphotyrosine blot); type: cell-based; set-up: expressed in transfected cells; host or cells: COS cells; conditions: inhibitor at 0.1 to 1 μM, 1 hour, FIG. 1 lanes 3-4
Description: (§1) Two subclones of the human mast cell leukemia line HMC1 were used to determine if the wild type and mutant KIT enzymes were able to interact with 2 drug compounds, […] and SU9529. Set forth as SEQ ID NO:1 is a nucleotide sequence for the wild type KIT enzyme (amino acid sequence is set forth as SEQ ID NO:2). One subclone, HMC1.1, expressed a valine to glycine substitution in codon 560 (Val560Gly) of the KIT intracellular juxtamembrane region. The other, HMC1.2, expressed the Val560Gly mutation and a second substitution, aspartate to valine in codon 816 (Asp816Val) in the kinase enzymatic pocket. […] For additional study of wild type and specific mutant forms of KIT, COS cells were used for transient expression of human wild-type and mutated c-KIT complementary DNAs, as described previously by Ma et al., “Inhibition of spontaneous receptor phosphorylation by residues in putatitive α-helix in the KIT intracellular juxtamembrane region,” J. Biol. Chem., 274:13399-13402 (1999). ST1571 is a commercially available drug manufactured by Novartis and developed as an inhibitor of the c-abl gene product. ST1571 has been reported to inhibit wild-type KIT and KIT expressed by HMC1. The other compound, SU9529, is manufactured by SUGEN and has not yet been made commercially available, although it has been published. […]
Target sequence in this assay (P10721 26-976): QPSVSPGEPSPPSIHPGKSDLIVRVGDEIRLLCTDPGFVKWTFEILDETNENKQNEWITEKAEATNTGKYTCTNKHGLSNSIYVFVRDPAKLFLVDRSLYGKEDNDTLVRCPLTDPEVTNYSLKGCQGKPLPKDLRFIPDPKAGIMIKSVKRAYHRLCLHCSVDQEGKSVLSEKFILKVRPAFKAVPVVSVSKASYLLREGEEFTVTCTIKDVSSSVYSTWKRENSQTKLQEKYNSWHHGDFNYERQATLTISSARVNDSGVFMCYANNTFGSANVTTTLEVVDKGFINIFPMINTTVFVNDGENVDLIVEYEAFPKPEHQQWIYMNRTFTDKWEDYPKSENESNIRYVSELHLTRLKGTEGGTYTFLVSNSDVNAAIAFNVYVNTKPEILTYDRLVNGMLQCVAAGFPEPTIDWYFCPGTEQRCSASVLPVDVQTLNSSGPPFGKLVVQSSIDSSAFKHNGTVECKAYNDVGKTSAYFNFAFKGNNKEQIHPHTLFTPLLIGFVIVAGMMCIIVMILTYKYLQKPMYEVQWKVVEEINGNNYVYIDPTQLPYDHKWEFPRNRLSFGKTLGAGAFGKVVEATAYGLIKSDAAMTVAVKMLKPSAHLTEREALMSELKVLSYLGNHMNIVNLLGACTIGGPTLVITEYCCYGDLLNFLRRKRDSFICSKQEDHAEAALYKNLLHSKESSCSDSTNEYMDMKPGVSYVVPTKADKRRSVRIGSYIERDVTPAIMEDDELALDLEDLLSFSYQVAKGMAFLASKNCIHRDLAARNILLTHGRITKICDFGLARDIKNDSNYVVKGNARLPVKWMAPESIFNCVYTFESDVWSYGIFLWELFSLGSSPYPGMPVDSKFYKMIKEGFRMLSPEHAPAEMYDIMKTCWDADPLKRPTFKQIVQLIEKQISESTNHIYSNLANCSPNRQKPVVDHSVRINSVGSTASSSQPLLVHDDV

[4] = target: T1, wild-type KIT; conditions: has been reported; cited from earlier work
Target sequence in this assay (P10721 26-976, species assumed): as the sequence (P10721 26-976) above

[5] = target: T2, KIT Val560Gly juxtamembrane regulatory type mutant (Homo sapiens, UniProt P10721, V560G); assay: SCF-independent constitutive phosphorylation of Val560Gly mutant KIT expressed in COS cells; type: cell-based; conditions: inhibitor at 0.1 to 1 μM, FIG. 1 lanes 6-7
T2 construct: expressed in transfected cells; host or cells: COS cells
Description: as §1

Sequence of KIT expressed by HMC1 (P10721 26-976 V560G): as the sequence (P10721 26-976) above, with V535G counted along it
T2 sequence (P10721 26-976 V560G): as the sequence (P10721 26-976) above, with V535G counted along it

Cc1ccc(NC(=O)c2ccc(CN3CCN(C)CC3)cc2)cc1Nc1nccc(-c2cccnc2)n1 [ST1571]
reported inhibition of KIT expressed by HMC1 [1]: inhibit
previously reported ability to kill an HMC1 line [2]: kill
inhibition of SCF-induced phosphorylation of wild-type KIT [3]: prevent the phosphorylation
reported inhibition of wild-type KIT [4]: inhibit
inhibition of SCF-independent constitutive phosphorylation of Val560Gly KIT [5]: inhibit
